According to paper PMC5522460, “Crystal structure of a low molecular weight activator Blm-pep with yeast 20S proteasome – insights into the enzyme activation mechanism” (Scientific Reports, 2017):
Where no end group is shown, it is not given here.

Molecular target: human 20S proteasome (Homo sapiens, UniProt P25786+P28066)
Experiment: Proteolytic stability assay with human 20S proteasome
Assay type: in vitro ADME
Conditions: 10 µM peptide, 0.025 mg/ml h20S, 25 mM Tris-HCl pH 8.0, 3 hours, 37 °C, RP-HPLC and MALDI TOF
Description: Blm-pep was incubated either with human or yeast 20S proteasome. Both assays were conducted in 25 mM Tris-HCl buffer (pH 8.0, measured at 20 °C), which for y20S contained 0.25 mM EDTA as an additive. The peptide and proteasome concentrations in 100 μl final solution were 10 µM and 0.025 mg/ml, respectively. Incubation was carried out for 3 hours at 37 °C. The reaction was stopped by addition of 5 μl of 10% TFA. Results were analyzed using RP-HPLC and MALDI TOF. Prior to MS analysis the samples were desalted using C18 spin columns (Pierce).

proteolytic stability with human 20S proteasome: digested
Sequence: KYFTGSKLWRSYYA [Blm-pep]
